Measured values from PubChem BioAssay AID316 (DTP/NCI, 2004).
Values joined by “and” are separate entries in the source; they are usually repeats but may differ in a detail not shown here. Equal values may be shown once. Inconclusive results and toxic doses are left out.

Test system: P1534 leukemia ip, CD2F1 mice, survival T/C
Experiment: NCI In Vivo Anticancer Drug Screen. Data for tumor model P1534 Leukemia (intraperitoneal) in CD2F1 (CDF1) mice
Details: higher = longer survival
Protocol: The antitumor activity of compounds was measured in mice bearing transplantable tumors. Survival or tumor size were measured and the results are expressed as the measurement made in the treated group (T) divided by the measurement made in the vehicle treated control group (C). The tumor model used in this assay is P1534 Leukemia (intraperitoneal) in CD2F1 (CDF1) mice

For `CC[C@]1(O)C[C@H]2CN(CCc3c([nH]c4ccccc34)[C@@](C(=O)OC)(c3cc4c(cc3OC)N(C=O)[C@H]3[C@@](O)(C(=O)OC)[C@H](OC(C)=O)[C@]5(CC)C=CCN6CC[C@]43[C@@H]65)C2)C1`, the T/C (endpoint: mean survival time, dose: 0.02 mg/kg/injection, schedule: Q01DX010 (ip), vehicle: saline) was 97 % of control, the T/C (endpoint: mean survival time, dose: 0.03 mg/kg/injection, schedule: Q01DX010 (ip), vehicle: saline) was 86 % of control and the T/C (endpoint: mean survival time, dose: 0.05 mg/kg/injection, schedule: Q01DX010 (ip), vehicle: water) was 100 % of control. The T/C (endpoint: mean survival time, dose: 0.1 mg/kg/injection, schedule: Q01DX010 (ip), vehicle: water) was 156 % of control, the T/C (endpoint: mean survival time, dose: 0.13 mg/kg/injection, schedule: Q02DX008 (ip), vehicle: saline) was 160 % of control and 259 % of control and 306 % of control and the T/C (endpoint: mean survival time, dose: 0.15 mg/kg/injection, schedule: Q## X004 (ip), vehicle: saline) was 119 % of control and 181 % of control and 234 % of control. For the same compound, the T/C (endpoint: mean survival time, dose: 0.16 mg/kg/injection, schedule: Q## X032 (ip), vehicle: saline) was 208 % of control, the T/C (endpoint: mean survival time, dose: 0.2 mg/kg/injection, schedule: Q01DX010 (ip), vehicle: water) was 305 % of control and the T/C (endpoint: mean survival time, dose: 0.2 mg/kg/injection, schedule: Q02DX008 (ip), vehicle: saline) was 221 % of control and 270 % of control and 290 % of control. The T/C (endpoint: mean survival time, dose: 0.22 mg/kg/injection, schedule: Q## X004 (ip), vehicle: saline) was 231 % of control and 242 % of control and 270 % of control, the T/C (endpoint: mean survival time, dose: 0.24 mg/kg/injection, schedule: Q## X032 (ip), vehicle: saline) was 187 % of control and 193 % of control and 212 % of control and the T/C (endpoint: mean survival time, dose: 0.3 mg/kg/injection, schedule: Q02DX008 (ip), vehicle: saline) was 298 % of control and 302 % of control and 352 % of control. For the same compound, the T/C (endpoint: mean survival time, dose: 0.35 mg/kg/injection, schedule: Q## X004 (ip), vehicle: saline) was 256 % of control and 273 % of control and 304 % of control, the T/C (endpoint: mean survival time, dose: 0.36 mg/kg/injection, schedule: Q## X032 (ip), vehicle: saline) was 234 % of control and 241 % of control and 282 % of control and the T/C (endpoint: mean survival time, dose: 0.44 mg/kg/injection, schedule: Q02DX008 (ip), vehicle: saline) was 154 % of control and 197 % of control and 358 % of control. The T/C (endpoint: mean survival time, dose: 0.53 mg/kg/injection, schedule: Q## X004 (ip), vehicle: saline) was 270 % of control and 344 % of control and 366 % of control, the T/C (endpoint: mean survival time, dose: 0.54 mg/kg/injection, schedule: Q## X032 (ip), vehicle: saline) was 274 % of control and 275 % of control and 335 % of control and the T/C (endpoint: mean survival time, dose: 0.8 mg/kg/injection, schedule: Q## X004 (ip), vehicle: saline) was 283 % of control and 357 % of control. For the same compound, the T/C (endpoint: mean survival time, dose: 0.8 mg/kg/injection, schedule: Q## X032 (ip), vehicle: saline) was 190 % of control and 218 % of control and 92 % of control, the T/C (endpoint: mean survival time, dose: 1.2 mg/kg/injection, schedule: Q## X004 (ip), vehicle: saline) was 152 % of control and the T/C (endpoint: mean survival time, dose: 1.2 mg/kg/injection, schedule: Q## X032 (ip), vehicle: saline) was 92 % of control. For the same compound, the T/C (endpoint: mean survival time, dose: 1.45 mg/kg/injection, schedule: Q01DX001 (ip), vehicle: saline) was 188 % of control and 237 % of control, the T/C (endpoint: mean survival time, dose: 1.45 mg/kg/injection, schedule: Q## X001 (ip), vehicle: saline) was 294 % of control and the T/C (endpoint: mean survival time, dose: 1.5 mg/kg/injection, schedule: Q01DX001 (ip), vehicle: saline) was 159 % of control and 188 % of control and 212 % of control. The T/C (endpoint: mean survival time, dose: 1.8 mg/kg/injection, schedule: Q## X004 (ip), vehicle: saline) was 100 % of control, the T/C (endpoint: mean survival time, dose: 2.9 mg/kg/injection, schedule: Q01DX001 (ip), vehicle: saline) was 158 % of control and the T/C (endpoint: mean survival time, dose: 2.9 mg/kg/injection, schedule: Q## X001 (ip), vehicle: saline) was 297 % of control. For the same compound, the T/C (endpoint: mean survival time, dose: 26.0 micrograms/kg/injection, schedule: Q01DX010 (ip), vehicle: saline) was 123 % of control and 208 % of control, the T/C (endpoint: mean survival time, dose: 27.0 micrograms/kg/injection, schedule: Q01DX015 (ip), vehicle: saline) was 167 % of control and 173 % of control and the T/C (endpoint: mean survival time, dose: 40.0 micrograms/kg/injection, schedule: Q01DX015 (ip), vehicle: saline) was 161 % of control and 240 % of control. For the same compound, the T/C (endpoint: mean survival time, dose: 60.0 micrograms/kg/injection, schedule: Q01DX015 (ip), vehicle: saline) was 221 % of control and 226 % of control, the T/C (endpoint: mean survival time, dose: 90.0 micrograms/kg/injection, schedule: Q01DX015 (ip), vehicle: saline) was 215 % of control and 228 % of control and 260 % of control and the T/C (endpoint: mean survival time, dose: 135.0 micrograms/kg/injection, schedule: Q01DX015 (ip), vehicle: saline) was 221 % of control and 281 % of control and 297 % of control. For the same compound, the T/C (endpoint: mean survival time, dose: 200.0 micrograms/kg/injection, schedule: Q01DX015 (ip), vehicle: saline) was 196 % of control and 233 % of control and 340 % of control, the T/C (endpoint: mean survival time, dose: 300.0 micrograms/kg/injection, schedule: Q01DX010 (ip), vehicle: saline) was 181 % of control and 240 % of control and the T/C (endpoint: mean survival time, dose: 300.0 micrograms/kg/injection, schedule: Q01DX015 (ip), vehicle: saline) was 200 % of control.
In the case of `COc1ccc(Cc2nccc3cc(OC)c(OC)cc23)cc1OC`, the T/C (endpoint: mean survival time, dose: 10.0 mg/kg/injection, schedule: Q01DX010 (ip), vehicle: saline) is reported as 100 % of control, the T/C (endpoint: mean survival time, dose: 20.0 mg/kg/injection, schedule: Q01DX010 (ip), vehicle: saline) is reported as 100 % of control and the T/C (endpoint: mean survival time, dose: 40.0 mg/kg/injection, schedule: Q01DX010 (ip), vehicle: saline) is reported as 100 % of control. For the same compound, the T/C (endpoint: mean survival time, dose: 80.0 mg/kg/injection, schedule: Q01DX010 (ip), vehicle: saline) was 100 % of control.
In the case of `O=CC(NC(=O)N(CCCl)N=O)C(O)C(O)C(O)CO` (centres undefined), the T/C (endpoint: median survival time, dose: 0.62 mg/kg/injection, schedule: Q01DX005 (ip), vehicle: other) is reported as 110 % of control, the T/C (endpoint: median survival time, dose: 2.5 mg/kg/injection, schedule: Q01DX005 (ip), vehicle: other) is reported as 156 % of control and the T/C (endpoint: median survival time, dose: 5.0 mg/kg/injection, schedule: Q01DX005 (ip), vehicle: other) is reported as 224 % of control. The T/C (endpoint: median survival time, dose: 10.0 mg/kg/injection, schedule: Q01DX005 (ip), vehicle: other) was 89 % of control.
